Structures are written as SMILES. In brackets after ≈: the same amount, converted by molar mass.

In one experiment the test system is P388. Description: Growth inhibition of mouse P388 cells. The experiment is classed as functional. As to conditions: read-out: ED50 (the source's name).
The subject of experiment [1] is 39 human cancer cell line panel (Homo sapiens). Description: Growth inhibition of 39 human cancer cell line panel. The settings on record: read-out: Log10GI50 (converted).
Experiment [2] is described as follows: Growth inhibition of human BSY1 cells. It counts as functional. As to conditions: BSY-1, read-out: Log10GI50 (converted).
The subject of another experiment is MKN-7. Description: Growth inhibition of human MKN7 cells. The experiment is classed as functional. As to conditions: read-out: Log10GI50 (converted).

Take `CCCCCC[C@@H](C)/C=C(C)/C=C/C(=O)N[C@H]1C[C@@]2(O)C=C(Cl)C(=O)[C@@H](Cl)[C@H]2O[C@@H]1OC` [DANKASTATIN A]: the EC50 with P388 came out at 0.15 µg/mL (≈ 0.307 µM).

With `CCCCCC[C@@H](C)/C=C(C)/C=C/C(=O)N[C@H]1C[C@]2(O)C=C(Cl)C(=O)[C@](Cl)([C@@H]1O)[C@H]2OC` [GYMNASTATIN Q], the GI50 in experiment [1] is 15.5 µM; in experiment [2], 3.39 µM; in the experiment on MKN-7 it was 6.76 µM. In addition, in the experiment on P388, the EC50 worked out at 1.7 µg/mL (≈ 3.48 µM).

Consider `CCCCCC[C@@H](C)/C=C(C)/C=C/C(=O)N[C@H]1C[C@]2(O)C=C(Cl)C(=O)[C@@](Cl)(C2)[C@H]1O` [GYMNASTATIN R], for which, in the experiment with P388, the EC50 is 2.8 µg/mL (≈ 6.11 µM).

For `CCCCCC[C@@H](C)/C=C(C)/C=C/C(=O)N[C@@H]1CO[C@H]2[C@@H](Cl)C(=O)C(Cl)=C[C@@]2(O)C1` [DANKASTATIN B], the EC50 in the experiment on P388 stood at 0.16 µg/mL (≈ 0.349 µM).

For the origin of these results see ChEMBL document CHEMBL1144822, “Gymnastatins and dankastatins, growth inhibitory metabolites of a gymnascella species from a Halichondria sponge” (2008).
